IC50 data for 32 compounds are collected here from patent US12559495B2 (Agency for Science, Technology and Research, priority 2013, dated 2026).

The structures appear in SMILES notation. pIC50: −log10 of the molar value. Some results are limits rather than exact numbers.

As usually defined, the pIC50 is the negative decadic logarithm of the IC50, by convention in mol/L. A lower pIC50 goes with a large IC50.

This test deals with HEK293-STF3A cells. Briefly: STF3A assay (luciferase reporter). The class given is cell-based. Particulars: Homo sapiens, 24 h, 1 day of treatment. How it is done: HEK293-STF cell line was modified from Human embryonic kidney cell line HEK293 transfected with the STF reporter. HEK293-STF3A cell line was further modified from HEK293-STF cell line to express Wnt3A. This cell line was used to identify compounds that regulate either early or late signalling components of the Wnt pathway. L-Wnt3A (ATCC, #CRL-2647) cell line was used for providing Wnt3A conditioned media. The three cell lines were grown in DMEM (Dulbecco's Modified Eagle Medium) with 10% FBS (fetal bovine serum) incubated in 37° C. with 5% CO2. 2×10^4 HEK293-STF3A cells in 75 μl culture media were seeded in each well of white 96 well plates (Greiner #655098) and incubated overnight at 37° C. 25 μl serially diluted compound was added to the cells to give final concentration of 50 μM to 1.5 nM. After 1 day of treatment, 100 μl of Steady-Glo® Luciferase Assay reagent (#E2520, Promega) was added to each well and incubated for 10 minutes at room temperature. Luminescence was measured using Tecan Safire2® plate reader.
For the compound `Cn1c(=O)c2c(ncn2CC(=O)Nc2ccc(-c3cccnn3)cc2)n(C)c1=O` [Compound 6, 2-(1,3-dimethyl-2,6-dioxo-2,3-dihydro-1H-purin-7(6H)-yl)-N-(4-(pyridazin-3-yl)phenyl)acetamide], the pIC50 was above 6.00. As for `Cn1c(=O)c2c(nc(Br)n2CC(=O)Nc2ccc(-c3ccsc3)cc2)n(C)c1=O` [Compound 76, 2-(8-bromo-1,3-dimethyl-2,6-dioxo-2,3-dihydro-1H-purin-7(6H)-yl)-N-(4-(thiophen-3-yl)phenyl)acetamide], the pIC50 is above 7.00. Then `C[C@H]1CNCCN1c1ccc(NC(=O)Cn2cnc3c2c(=O)n(C)c(=O)n3C)cc1` [Compound 43, (S)-2-(1,3-dimethyl-2,6-dioxo-2,3-dihydro-1H-purin-7(6H)-yl)-N-(4-(2-methylpiperazin-1-yl)phenyl)acetamide], with below 5.00; and `Cn1c(=O)c2c(ncn2CC(=O)Nc2ccc(N3CCNCC3)cn2)n(C)c1=O` [Compound 42, 2-(1,3-dimethyl-2,6-dioxo-2,3-dihydro-1H-purin-7(6H)-yl)-N-(5-(piperazin-1-yl)pyridin-2-yl)acetamide], with below 5.00; and `C[C@H](C(=O)Nc1ccc(-c2nccs2)cn1)n1cnc2c1c(=O)n(C)c(=O)n2C` [Compound 83, (R)-2-(1,3-dimethyl-2,6-dioxo-1,2,3,6-tetrahydro-7H-purin-7-yl)-N-(5-(thiazol-2-yl)pyridin-2-yl)propanamide], with above 5.00. For `Cn1c(=O)c2c(ncn2CC(=O)Nc2ccc(-c3cccs3)cc2)n(C)c1=O` [Compound 89, 2-(1,3-dimethyl-2,6-dioxo-1,2,3,6-tetrahydro-7H-purin-7-yl)-N-(4-(thiophen-2-yl)phenyl)acetamide] the value was above 7.00; for `Cn1c(=O)c2c(nc(C(F)(F)F)n2CC(=O)Nc2ccc(-c3ccsc3)cc2)n(C)c1=O` [Compound 70, 2-(1,3-dimethyl-2,6-dioxo-8-(trifluoromethyl)-2,3-dihydro-1H-purin-7(6H)-yl)-N-(4-(thiophen-3-yl)phenyl)acetamide], above 7.00. In the case of `CC(C(=O)Nc1ccc(-c2ccccc2)nn1)n1cnc2c1c(=O)n(C)c(=O)n2C` (centres unmarked) [Compound 77, 2-(1,3-dimethyl-2,6-dioxo-2,3-dihydro-1H-purin-7(6H)-yl)-N-(6-phenylpyridazin-3-yl)propanamide], the pIC50 was above 7.00. For `Cc1nc2c(c(=O)n(C)c(=O)n2C)n1CC(=O)Nc1ccc(-c2ccsc2)cc1` [Compound 66, N-(4-(thiophen-3-yl)phenyl)-2-(1,3,8-trimethyl-2,6-dioxo-2,3-dihydro-1H-purin-7(6H)-yl)acetamide] the value was above 7.00; for `Cn1c(=O)c2c(ncn2CCCC(=O)Nc2ccc(-c3cccs3)cc2)n(C)c1=O` [Compound 91, 4-(1,3-dimethyl-2,6-dioxo-1,2,3,6-tetrahydro-7H-purin-7-yl)-N-(4-(thiophen-2-yl)phenyl)butanamide], above 7.00; for `Cn1c(=O)c2c(ncn2CC(=O)Nc2ccc(N3CCN(C(=O)c4cccs4)CC3)cn2)n(C)c1=O` [Compound 50, 2-(1,3-dimethyl-2,6-dioxo-2,3-dihydro-1H-purin-7(6H)-yl)-N-(5-(4-(thiophene-2-carbonyl)piperazin-1-yl)pyridin-2-yl)acetamide], above 6.00.

In turn, `Cn1c(=O)c2c(nc(C3CC3)n2CC(=O)Nc2ccc(-c3ccsc3)cc2)n(C)c1=O` [Compound 68, 2-(8-cyclopropyl-1,3-dimethyl-2,6-dioxo-2,3-dihydro-1H-purin-7(6H)-yl)-N-(4-(thiophen-3-yl)phenyl)acetamide] had a pIC50 above 7.00.

As to `Cn1c(=O)c2c(ncn2CCC(=O)Nc2ccc(-c3nccs3)cc2)n(C)c1=O` [Compound 93, 3-(1,3-dimethyl-2,6-dioxo-1,2,3,6-tetrahydro-7H-purin-7-yl)-N-(4-(thiazol-2-yl)phenyl)propanamide], the pIC50 was above 6.00. On to `CC(C(=O)Nc1ccc(-c2nccs2)cc1)n1cnc2c1c(=O)n(C)c(=O)n2C` (centres unmarked) [Compound 81, 2-(1,3-dimethyl-2,6-dioxo-2,3-dihydro-1H-purin-7(6H)-yl)-N-(4-(thiazol-2-yl)phenyl)propanamide], for which the pIC50 was above 7.00. `Cn1c(=O)c2c(ncn2CC(=O)Nc2ccc(-c3ncco3)cc2)n(C)c1=O` [Compound 24, 2-(1,3-dimethyl-2,6-dioxo-2,3-dihydro-1H-purin-7(6H)-yl)-N-(4-(oxazol-2-yl)phenyl)acetamide] showed a negative-log IC50 (pIC50) above 6.00. Then `Cn1c(=O)c2c(ncn2CC(=O)Nc2ccc(-c3ccccn3)cc2)n(C)c1=O` [Compound 25, 2-(1,3-dimethyl-2,6-dioxo-2,3-dihydro-1H-purin-7(6H)-yl)-N-(4-(pyridin-2-yl)phenyl)acetamide], with above 7.00; and `CC(C(=O)Nc1ccc(N2CCN(C(=O)OC(C)(C)C)CC2)cc1)n1cnc2c1c(=O)n(C)c(=O)n2C` (centres unmarked) [Compound 23, tert-butyl 4-(4-(2-(1,3-dimethyl-2,6-dioxo-2,3-dihydro-1H-purin-7(6H)-yl)propanamido)phenyl)piperazine-1-carboxylate], with above 7.00. Then `Cn1c(=O)c2c(ncn2CC(=O)Nc2ccc(N3CCN(C(=O)OC(C)(C)C)CC3)cn2)n(C)c1=O` [Compound 20], with above 7.00. As to `Cn1c(=O)c2c(ncn2CC(=O)Nc2ccc(-c3cccnc3)cc2)n(C)c1=O` [Compound 26, 2-(1,3-dimethyl-2,6-dioxo-2,3-dihydro-1H-purin-7(6H)-yl)-N-(4-(pyridin-3-yl)phenyl)acetamide], the pIC50 was above 7.00. For `CC(C(=O)Nc1ccc(-c2ccc(F)cc2)nn1)n1cnc2c1c(=O)n(C)c(=O)n2C` (centres unmarked) [Compound 78, 2-(1,3-dimethyl-2,6-dioxo-2,3-dihydro-1H-purin-7(6H)-yl)-N-(6-(4-fluorophenyl)pyridazin-3-yl)propanamide], the pIC50 is above 6.00. Then `Cn1c(=O)c2c(ncn2CC(=O)Nc2ccc(-c3ncccn3)cc2)n(C)c1=O` [Compound 8, 2-(1,3-dimethyl-2,6-dioxo-2,3-dihydro-1H-purin-7(6H)-yl)-N-(4-(pyrimidin-2-yl)phenyl)acetamide], with above 5.30; and `Cn1c(=O)c2c(ncn2CC(=O)Nc2ccc(-c3ccccc3)cn2)n(C)c1=O` [Compound 19, 2-(1,3-dimethyl-2,6-dioxo-2,3-dihydro-1H-purin-7(6H)-yl)-N-(5-phenylpyridin-2-yl)acetamide], with above 7.00. Turning to `Cn1c(=O)c2c(ncn2CC(=O)Nc2ccc(-c3cnco3)cc2)n(C)c1=O` [Compound 40, 2-(1,3-dimethyl-2,6-dioxo-2,3-dihydro-1H-purin-7(6H)-yl)-N-(4-(oxazol-5-yl)phenyl)acetamide], the pIC50 was above 6.00. For `Cc1ccc(-c2ccc(NC(=O)Cn3cnc4c3c(=O)n(C)c(=O)n4C)cc2)cc1` [Compound 30, 2-(1,3-dimethyl-2,6-dioxo-2,3-dihydro-1H-purin-7(6H)-yl)-N-(4′-methylbiphenyl-4-yl)acetamide] the value was above 7.00; for `Cn1c(=O)c2c(ncn2CC(=O)Nc2ccc(N3CCN(Cc4ccc(F)cc4)CC3)cn2)n(C)c1=O` [Compound 56, 2-(1,3-dimethyl-2,6-dioxo-2,3-dihydro-1H-purin-7(6H)-yl)-N-(5-(4-(4-fluorobenzyl)piperazin-1-yl)pyridin-2-yl)acetamide], above 6.00. `Cn1c(=O)c2c(nc(-c3cccs3)n2CC(=O)Nc2ccc(-c3ccsc3)cc2)n(C)c1=O` [Compound 75, 2-(1,3-dimethyl-2,6-dioxo-8-(thiophen-2-yl)-2,3-dihydro-1H-purin-7(6H)-yl)-N-(4-(thiophen-3-yl)phenyl)acetamide] showed a pIC50 above 6.00.

For `Cn1c(=O)c2c(ncn2CC(=O)Nc2cc(-c3ccccc3)no2)n(C)c1=O` [Compound 39, 2-(1,3-dimethyl-2,6-dioxo-2,3-dihydro-1H-purin-7(6H)-yl)-N-(3-phenylisoxazol-5-yl)acetamide], the pIC50 is below 5.00. Take `CC(C(=O)Nc1ccc(-c2ccsc2)cc1)n1cnc2c1c(=O)n(C)c(=O)n2C` (centres unmarked) [Compound 61, 2-(1,3-dimethyl-2,6-dioxo-2,3-dihydro-1H-purin-7(6H)-yl)-N-(4-(thiophen-3-yl)phenyl)propanamide]: the pIC50 is above 7.00. Then `Cn1c(=O)c2c(ncn2CC(=O)Nc2ccc(-c3nccs3)cc2)n(C)c1=O` [Compound 34, 2-(1,3-dimethyl-2,6-dioxo-2,3-dihydro-1H-purin-7(6H)-yl)-N-(4-(thiazol-2-yl)phenyl)acetamide], with above 7.00; and `Cn1c(=O)c2c(nc(-c3ccccc3)n2CC(=O)Nc2ccc(-c3ccsc3)cc2)n(C)c1=O` [Compound 69, 2-(1,3-dimethyl-2,6-dioxo-8-phenyl-2,3-dihydro-1H-purin-7(6H)-yl)-N-(4-(thiophen-3-yl)phenyl)acetamide], with above 7.00.

`Cn1c(=O)c2c(ncn2C(C)(C)C(=O)Nc2ccc(-c3ccsc3)cc2)n(C)c1=O` [Compound 60, 2-(1,3-dimethyl-2,6-dioxo-2,3-dihydro-1H-purin-7(6H)-yl)-2-methyl-N-(4-(thiophen-3-yl)phenyl)propanamide] showed a pIC50 above 6.00. In turn, `Cn1c(=O)c2c(ncn2CC(=O)Nc2ccc(N3CCN(C(=O)c4ccccc4)CC3)cn2)n(C)c1=O` [Compound 45, N-(5-(4-benzoylpiperazin-1-yl)pyridin-2-yl)-2-(1,3-dimethyl-2,6-dioxo-2,3-dihydro-1H-purin-7(6H)-yl)acetamide] gave a pIC50 above 7.00.
